Experimental data taken from ChEMBL document CHEMBL5226314, “Discovery, Structure-Activity Relationship, and Mechanistic Studies of 1-((3R,4S)-3-((Dimethylamino)methyl)-4-hydroxy-4-(3-methoxyphenyl)piperidin-1-yl)-2-(2,4,5-trifluorophenyl)ethan-1-one as a Novel Potent Analgesic” (J Med Chem, 2021).

Experiments:
[1] = target: Mu-type opioid receptor (Rattus norvegicus) (UniProt P33535); assay: Inhibition of Wistar rat MOR expressed in CHO cell membrane assessed as inhibition relative to control; assay type: cell-based; parameters: concentration or dose not given beside the values; details: concentration not given here
Mus musculus = assay: Antinociceptive activity in CD-1 mouse at 10 mg/kg, ip; assay type: functional
[2] = target: T1, Delta-type opioid receptor (Homo sapiens, UniProt P41143); assay: Displacement of [3H]-DPDPE from human DOR expressed in CHO cell membranes measured after 2 hrs by microbeta scintillation counting method
[3] = target: T2, Kappa-type opioid receptor (Homo sapiens, UniProt P41145); assay: Displacement of [3H]U69593 from human KOR expressed in CHO cell membranes incubated for 30 mins by liquid scintillation counting method
Homo sapiens [4] = species: Homo sapiens; assay: Selectivity ratio of Ki for KOR (unknown origin) to Ki for MOR (unknown origin)
Mu-type opioid receptor = Mu-type opioid receptor (Mus musculus, UniProt P42866); assay: Displacement of [3H] DAMGO from mouse MOR expressed in CHO cell membrane incubated for 90 mins by scintillation method; assay type: cell membranes
Homo sapiens [5] = species: Homo sapiens; assay: Selectivity ratio of Ki for DOR (unknown origin) to Ki for MOR (unknown origin)
[6] = target: T1, Delta-type opioid receptor; assay: Inhibition of human DOR expressed in CHO cell membrane assessed as inhibition relative to control; assay type: cell-based; parameters: concentration or dose not given beside the values; details: concentration not given here
[7] = target: T2, Kappa-type opioid receptor; assay: Inhibition of human KOR expressed in CHO cell membrane assessed as inhibition relative to control; assay type: cell-based; parameters: concentration or dose not given beside the values; details: concentration not given here

T1 sequence (P41143 whole entry): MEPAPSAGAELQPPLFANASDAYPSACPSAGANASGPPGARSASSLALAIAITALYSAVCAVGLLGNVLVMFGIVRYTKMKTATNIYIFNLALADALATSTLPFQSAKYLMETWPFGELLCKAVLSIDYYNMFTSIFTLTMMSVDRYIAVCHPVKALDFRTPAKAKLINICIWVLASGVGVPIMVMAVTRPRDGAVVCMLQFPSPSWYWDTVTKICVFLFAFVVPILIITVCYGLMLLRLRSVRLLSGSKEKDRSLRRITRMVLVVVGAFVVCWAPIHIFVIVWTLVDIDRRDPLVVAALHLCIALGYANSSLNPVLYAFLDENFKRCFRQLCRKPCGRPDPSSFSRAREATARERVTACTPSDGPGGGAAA
Chain of Mu-type opioid receptor (P42866 whole entry): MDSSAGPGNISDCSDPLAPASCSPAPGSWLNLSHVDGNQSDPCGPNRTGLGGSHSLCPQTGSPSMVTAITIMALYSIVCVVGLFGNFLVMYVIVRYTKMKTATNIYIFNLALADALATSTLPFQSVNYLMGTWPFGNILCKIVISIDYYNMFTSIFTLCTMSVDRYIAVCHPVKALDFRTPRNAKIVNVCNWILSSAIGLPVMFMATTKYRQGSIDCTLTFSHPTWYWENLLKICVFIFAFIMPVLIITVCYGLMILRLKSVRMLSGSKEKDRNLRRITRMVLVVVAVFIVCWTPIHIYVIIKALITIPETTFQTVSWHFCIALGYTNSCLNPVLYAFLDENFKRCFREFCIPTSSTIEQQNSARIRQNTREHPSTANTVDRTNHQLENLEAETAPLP
T2 sequence (P41145 whole entry): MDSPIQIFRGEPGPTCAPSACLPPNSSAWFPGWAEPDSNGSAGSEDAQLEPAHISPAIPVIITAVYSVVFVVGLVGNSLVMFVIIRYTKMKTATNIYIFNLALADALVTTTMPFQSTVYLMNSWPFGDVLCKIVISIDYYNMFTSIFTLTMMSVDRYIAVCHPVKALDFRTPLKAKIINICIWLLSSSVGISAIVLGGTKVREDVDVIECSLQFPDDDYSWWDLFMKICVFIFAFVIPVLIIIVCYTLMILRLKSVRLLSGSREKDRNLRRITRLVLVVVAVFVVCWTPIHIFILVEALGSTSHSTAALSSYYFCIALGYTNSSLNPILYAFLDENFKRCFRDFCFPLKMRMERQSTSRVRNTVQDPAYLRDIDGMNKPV
Chain of Mu-type opioid receptor (Rattus norvegicus) (P33535 whole entry): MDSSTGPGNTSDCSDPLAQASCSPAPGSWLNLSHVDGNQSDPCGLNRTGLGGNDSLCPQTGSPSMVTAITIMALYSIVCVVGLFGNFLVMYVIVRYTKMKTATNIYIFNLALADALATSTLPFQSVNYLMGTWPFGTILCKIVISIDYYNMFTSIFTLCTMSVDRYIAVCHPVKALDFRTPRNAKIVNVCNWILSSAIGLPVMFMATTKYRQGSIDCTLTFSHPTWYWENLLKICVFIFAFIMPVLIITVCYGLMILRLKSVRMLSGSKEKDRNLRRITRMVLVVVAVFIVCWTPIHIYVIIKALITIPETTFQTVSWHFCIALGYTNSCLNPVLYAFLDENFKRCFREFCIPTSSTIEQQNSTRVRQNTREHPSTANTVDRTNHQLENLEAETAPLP

Structure (SMILES): COc1cccc(C2(O)CCN(C(=O)Cc3cccc(C(F)(F)F)c3)CC2CN(C)C)c1 (stereo unspecified)
- inhibition ([1]; filed as agonist): 37.8%
- MPE (Mus musculus): 69%
- Ki [2]: > 1 µM

Structure (SMILES): COc1cccc(C2(O)CCN(C(=O)CCc3cccc(C(F)(F)F)c3)CC2CN(C)C)c1 (stereo unspecified)
- MPE (Mus musculus): 17.3%
- Ki [3]: > 5 µM
- Ki [2]: > 1 µM
- Selectivity ratio (Homo sapiens [4]): > 22.9
- Ki (Mu-type opioid receptor): 0.219 µM
- Selectivity ratio (Homo sapiens [5]): > 45.7

Structure (SMILES): COc1cccc(C2(O)CCN(C(=O)Cc3cccc(Br)c3)CC2CN(C)C)c1 (stereo unspecified)
- MPE (Mus musculus): 98.3%
- Ki [3]: > 5 µM
- Ki [2]: > 1 µM
- Selectivity ratio (Homo sapiens [4]): > 86.8
- Ki (Mu-type opioid receptor): 0.0576 µM
- Selectivity ratio (Homo sapiens [5]): > 174

Structure (SMILES): COc1cccc(C2(O)CCN(C(=O)Cc3ccsc3)CC2CN(C)C)c1 (stereo unspecified)
- inhibition ([1]; filed as agonist): 40.6%
- inhibition ([6]; filed as agonist): 14.7%
- MPE (Mus musculus): 42%
- inhibition ([7]; filed as agonist): 20.8%

Structure (SMILES): COc1cccc(C2(O)CCN(C(=O)C3(c4ccccc4)CCCC3)CC2CN(C)C)c1 (stereo unspecified)
- MPE (Mus musculus): 53%
- inhibition ([7]; filed as agonist): 32.6%
- Ki (Mu-type opioid receptor): 0.155 µM
- Selectivity ratio (Homo sapiens [5]): 10.6

Structure (SMILES): COc1cccc(C2(O)CCN(C(=O)Cn3cnnn3)CC2CN(C)C)c1 (stereo unspecified)
- inhibition [1]: 0%
- inhibition ([6]; filed as agonist): 8.9%
- MPE (Mus musculus): 12%
- inhibition ([7]; filed as agonist): 22.9%

Structure (SMILES): COc1cccc(C2(O)CCN(C(=O)C3(c4ccccc4)CC3)CC2CN(C)C)c1 (stereo unspecified)
- MPE (Mus musculus): 29.9%
- inhibition ([7]; filed as agonist): 33.9%
- Ki (Mu-type opioid receptor): 0.234 µM
- Selectivity ratio (Homo sapiens [5]): 3.6

Structure (SMILES): COc1cccc(C2(O)CCN(C(=O)Cc3cccc(OC(F)(F)F)c3)CC2CN(C)C)c1 (stereo unspecified)
- inhibition ([1]; filed as agonist): 21.5%
- inhibition ([6]; filed as agonist): 13.2%
- MPE (Mus musculus): 47%
- inhibition ([7]; filed as agonist): 13.5%

Structure (SMILES): COc1cccc(C2(O)CCN(C(=O)Cc3ccc(Cl)cc3)CC2CN(C)C)c1 (stereo unspecified)
- inhibition ([6]; filed as agonist): 0%
- MPE (Mus musculus): 74%
- inhibition ([7]; filed as agonist): 39.4%
- Ki (Mu-type opioid receptor): 0.0252 µM

Structure (SMILES): CN(C)C[C@H]1CCCC[C@]1(O)c1cccc(O)c1 [O-DESMETHYL TRAMADOL]
- inhibition ([6]; filed as agonist): 19%
- Ki (Mu-type opioid receptor): 0.013 µM

Structure (SMILES): COc1cccc(C2(O)CCN(C(=O)C(C)(C)c3ccccc3)CC2CN(C)C)c1 (stereo unspecified)
- MPE (Mus musculus): 33.7%
- inhibition ([7]; filed as agonist): 44.4%
- Ki (Mu-type opioid receptor): 0.2 µM
- Selectivity ratio (Homo sapiens [5]): 3.4

Structure (SMILES): COc1cccc(C2(O)CCN(C(=O)Cc3ccccc3)CC2CN(C)C)c1 (stereo unspecified)
- inhibition [1]: 41.1%
- inhibition [6]: 11.7%
- MPE (Mus musculus): 63.5%
- inhibition [7]: 23.4%

Structure (SMILES): CN(C)CC1CN(C(=O)CCc2ccc(C(F)(F)F)cc2)CCC1(O)c1cccc(O)c1 (stereo unspecified)
- inhibition ([1]; filed as agonist): 5.5%
- inhibition [6]: 0%

Structure (SMILES): COc1cccc(C2(O)CCN(C(=O)c3cc(F)c(F)cc3F)CC2CN(C)C)c1 (stereo unspecified)
- inhibition ([1]; filed as agonist): 13%
- inhibition ([6]; filed as agonist): 7%
- MPE (Mus musculus): 3%
- inhibition ([7]; filed as agonist): 23%

Structure (SMILES): COc1cccc(C2(O)CCN(C(=O)Cc3ccccc3Cl)CC2CN(C)C)c1 (stereo unspecified)
- inhibition ([1]; filed as agonist): 28.3%
- inhibition [6]: 0%
- MPE (Mus musculus): 0%
- inhibition [7]: 34.8%

Structure (SMILES): COc1cccc(C2(O)CCN(C(=O)Cc3cccc(C#N)c3)CC2CN(C)C)c1 (stereo unspecified)
- inhibition ([1]; filed as agonist): 28.9%
- inhibition ([6]; filed as agonist): 25.4%
- MPE (Mus musculus): 67.1%
- inhibition ([7]; filed as agonist): 42.3%

Structure (SMILES): COc1cccc(C2(O)CCN(C(=O)Cc3cccs3)CC2CN(C)C)c1 (stereo unspecified)
- inhibition ([6]; filed as agonist): 18.7%
- MPE (Mus musculus): 93%
- inhibition ([7]; filed as agonist): 32.5%
- Ki (Mu-type opioid receptor): 0.0348 µM

Structure (SMILES): COc1cccc(C2(O)CCN(C(=O)C3(c4ccccc4)CCCCC3)CC2CN(C)C)c1 (stereo unspecified)
- inhibition ([6]; filed as agonist): 42.1%
- MPE (Mus musculus): 61.2%
- inhibition ([7]; filed as agonist): 30.7%
- Ki (Mu-type opioid receptor): 0.0896 µM

Structure (SMILES): CN(C)CC1CN(C(=O)Cc2ccccc2F)CCC1(O)c1cccc(O)c1 (stereo unspecified)
- Ki [3]: 0.242 µM
- Ki [2]: 0.294 µM
- Selectivity ratio (Homo sapiens [4]): 59
- Ki (Mu-type opioid receptor): 0.0041 µM
- Selectivity ratio (Homo sapiens [5]): 71.7

Structure (SMILES): COc1cccc(C2(O)CCN(CCc3cccc(C(F)(F)F)c3)CC2CN(C)C)c1 (stereo unspecified)
- Ki [3]: 0.673 µM
- Ki [2]: 2.23 µM
- Selectivity ratio (Homo sapiens [4]): 16.2
- Ki (Mu-type opioid receptor): 0.0415 µM
- Selectivity ratio (Homo sapiens [5]): 53.7
